From PubChem BioAssay AID1963835 (Molecular Pharmacology Branch, DTP, NCI, 2024)

Test system: 699152-130-R-J1-PDC complex spheroid viability
Experiment: Anticancer human tumor 699152-130-R-J1-PDC patient-derived pancreatic carcinoma cell line growth inhibition [POLQ]
Conditions: for IC50: curve of first compound; for viability, T/C: stronger effect = lower value; active = viability on the fitted dose curve at most 10% of control; inactive = the rest
Summary of the method: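 Patient-derived tumour cells were co-cultured with HUVEC and mesenchymal stem cells as multicellular spheroids at 37 °C. They were treated with POLQ inhibitors (novobiocin, ART-558, RP6685) alone or combined with other agents. Top concentrations were at or near clinical Cmax (otherwise 10 microM; SN-38 at 1 microM), decreasing in half-log steps.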

[1] = second compound 0.0316 µM, first compound 0.0316 µM
[2] = second compound 0.0316 µM, first compound 0.1 µM
[3] = second compound 0.0316 µM, first compound 0.316 µM
[4] = second compound 0.0316 µM, first compound 1 µM
[5] = second compound 0.0316 µM, first compound 3.16 µM
[6] = second compound 0.0316 µM, first compound 10 µM
[7] = second compound 0.1 µM, first compound 0.0316 µM
[8] = second compound 0.1 µM, first compound 0.1 µM
[9] = second compound 0.1 µM, first compound 0.316 µM
[10] = second compound 0.1 µM, first compound 1 µM
[11] = second compound 0.1 µM, first compound 3.16 µM
[12] = second compound 0.1 µM, first compound 10 µM
[13] = second compound 0.316 µM, first compound 0.0316 µM
[14] = second compound 0.316 µM, first compound 0.1 µM
[15] = second compound 0.316 µM, first compound 0.316 µM
[16] = second compound 0.316 µM, first compound 1 µM
[17] = second compound 0.316 µM, first compound 3.16 µM
[18] = second compound 0.316 µM, first compound 10 µM
[19] = second compound 1 µM, first compound 0.0316 µM
[20] = second compound 1 µM, first compound 0.1 µM
[21] = second compound 1 µM, first compound 0.316 µM
[22] = second compound 1 µM, first compound 1 µM
[23] = second compound 1 µM, first compound 3.16 µM
[24] = second compound 1 µM, first compound 10 µM
[25] = second compound 3.16 µM, first compound 0.0316 µM
[26] = second compound 3.16 µM, first compound 0.1 µM
[27] = second compound 3.16 µM, first compound 0.316 µM
[28] = second compound 3.16 µM, first compound 1 µM
[29] = second compound 3.16 µM, first compound 3.16 µM
[30] = second compound 3.16 µM, first compound 10 µM
[31] = second compound 10 µM, first compound 0.0316 µM
[32] = second compound 10 µM, first compound 0.1 µM
[33] = second compound 10 µM, first compound 0.316 µM
[34] = second compound 10 µM, first compound 1 µM
[35] = second compound 10 µM, first compound 3.16 µM
[36] = second compound 10 µM, first compound 10 µM
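Note: spheroids exposed to agents for 7 days before viability reading.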
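Throughout, for viability, T/C: percent of DMSO vehicle control viability so 100% = vehicle and 0% = no viable signal.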

CC(C)n1c(=O)n(C)c2cnc3cc(F)c(-c4ccc(OCCCN5CCCCC5)nc4)cc3c21 + COC1C(OC(N)=O)C(O)C(Oc2ccc3c(O)c(NC(=O)c4ccc(O)c(CC=C(C)C)c4)c(=O)oc3c2C)OC1(C)C
inactive: viability, T/C [1] 38.8% | viability, T/C [2] 44.1% | viability, T/C [3] 39.9% | viability, T/C [4] 47.7% | viability, T/C [5] 46.4% | viability, T/C [6] 45.8% | viability, T/C [7] 34.7% | viability, T/C [8] 40.6% | viability, T/C [9] 41.8% | viability, T/C [10] 41% | viability, T/C [11] 38.9% | viability, T/C [12] 39.9% | viability, T/C [13] 38.9% | viability, T/C [14] 39.2% | viability, T/C [15] 46.5% | viability, T/C [16] 44.8% | viability, T/C [17] 42% | viability, T/C [18] 43.5% | viability, T/C [19] 40.9% | viability, T/C [20] 44.4% | viability, T/C [21] 40.4% | viability, T/C [22] 39.6% | viability, T/C [23] 41.8% | viability, T/C [24] 41.8% | viability, T/C [25] 40.5% | viability, T/C [26] 41.9% | viability, T/C [27] 41.7% | viability, T/C [28] 47.2% | viability, T/C [29] 42.6% | viability, T/C [30] 41.3% | viability, T/C [31] 48.5% | viability, T/C [32] 39.8% | viability, T/C [33] 37.8% | viability, T/C [34] 38.3% | viability, T/C [35] 44.6% | viability, T/C [36] 37.5%
< 0.0316 µM: IC50 (second compound 0.0316 µM) | IC50 (second compound 0.1 µM) | IC50 (second compound 0.316 µM) | IC50 (second compound 1 µM) | IC50 (second compound 3.16 µM) | IC50 (second compound 10 µM)

CCc1cc2c(N3CCc4c(cc(Cn5ccnc5)cc4-c4cn(C)nc4C(F)(F)F)C3=O)ccnc2c(OC)n1 + Cc1cccc(N(C)C(=O)C2C(O)CCN2c2nc(C)cc(C(F)(F)F)c2C#N)c1
inactive: viability, T/C [1] 80% | viability, T/C [2] 90.4% | viability, T/C [3] 105% | viability, T/C [4] 114% | viability, T/C [5] 103% | viability, T/C [6] 95% | viability, T/C [7] 75.8% | viability, T/C [8] 89.3% | viability, T/C [9] 88.1% | viability, T/C [10] 94.2% | viability, T/C [11] 97.3% | viability, T/C [12] 94.9% | viability, T/C [13] 86.7% | viability, T/C [14] 101% | viability, T/C [15] 91.5% | viability, T/C [16] 102% | viability, T/C [17] 103% | viability, T/C [18] 93.6% | viability, T/C [19] 101% | viability, T/C [20] 93% | viability, T/C [21] 98.7% | viability, T/C [22] 86.8% | viability, T/C [23] 105% | viability, T/C [24] 91.7% | viability, T/C [25] 99.2% | viability, T/C [26] 94.5% | viability, T/C [27] 98.4% | viability, T/C [28] 95.1% | viability, T/C [29] 90.9% | viability, T/C [30] 99.8% | viability, T/C [31] 85.6% | viability, T/C [32] 93.1% | viability, T/C [33] 92.5% | viability, T/C [34] 94.7% | viability, T/C [35] 95.1% | viability, T/C [36] 95.5%
> 10 µM: IC50 (second compound 0.0316 µM) | IC50 (second compound 0.1 µM) | IC50 (second compound 0.316 µM) | IC50 (second compound 1 µM) | IC50 (second compound 3.16 µM) | IC50 (second compound 10 µM)
